In patent US10626110B2, “Polymorph of pazopanib hydrochloride and preparation process thereof” (FORMOSA LABORATORIES, INC., priority 2018, dated 2020):
Counter-ions that a name gives are not always drawn. Like-named read-outs stand apart in the source and are kept apart here.

Assays:
[1] = Stability / storage (statement only, no method described); assay type: physicochemical; settings: no data given
[2] = Solubility analysis in 0.1 M HCl and phosphate buffer (pH 4.5 and pH 6.8); assay type: physicochemical
Description: The solubility of Pazopanib HCl Form F and Pazopanib HCl Form A in 0.1 M HCl and phosphate buffer (pH4.5 and pH6.8) was examined in the present analysis.

## Cc1ccc(Nc2nccc(N(C)c3ccc4c(C)n(C)nc4c3)n2)cc1S(N)(=O)=O [Pazopanib HCl Form F, Pazopanib hydrochloride]
[1]
  Stability: better stability, and can be stored for a long time
[2]; 0.1M HCl
  Solubility (descriptive term): Very slightly soluble
  Solubility compared with Pazopanib HCl Form A: better solubility in 0.1 M HCl than Pazopanib HCl Form A
[2]; 0.1M HCl, hydrochloride
  solubility: 669 µg/mL
[2]; Phosphate buffer, pH 4.5
  Solubility (descriptive term): Practically insoluble
[2]; Phosphate buffer, pH 6.8
  Solubility (descriptive term): Practically insoluble

## Cc1ccc(Nc2nccc(N(C)c3ccc4c(C)n(C)nc4c3)n2)cc1S(N)(=O)=O [Pazopanib HCl Form A, Pazopanib hydrochloride]
[2]; 0.1M HCl
  Solubility (descriptive term): Very slightly soluble
[2]; 0.1 M HCl, simulated gastric fluid, thermodynamic from solid, 0.1M HCl, read-out: Solubility
  solubility: 584 µg/mL
[2]; Phosphate buffer, pH 4.5
  Solubility (descriptive term): Practically insoluble
[2]; Phosphate buffer, pH 6.8
  Solubility (descriptive term): Practically insoluble
